IC50 data for one compound are collected here from BindingDB's records for doi:10.1016/s0960-894x(00)00062-7 (University of Bristol, 2000).

The nature of the experiment: Inhibition of 3 nM [3H]clonidine binding to rat kidney membrane imidazoline receptor I-1 in presence of rauwolscine.

On to `N#CSc1ccc2oc(C3=NCCN3)cc2c1`, for which the IC50 amounted to 8.1 µM.
